Experimental data taken from PMC2929395 (Chemistry & biology, 2010).
Entries after “also recorded” stand apart in the source; their conditions may differ. Structures can show the parent of a compound that is named as a salt.

How the values were obtained:
PanK3 [1] = biological target: T1, PanK3 (Homo sapiens, UniProt Q9H999); assay: PanK3 high-throughput screen, two-step luminescence; assay type: biochemical
PanK3 [2] = biological target: T1, PanK3; assay: PanK3 radiochemical; assay type: biochemical; conditions: for % Activation RA: % of maximal activation of PanK3 with respect to the DMSO control; for % Activation RA / PanK3 inhibition (in words): radioactive assay; for EC50 (µM), RA: radiochemical PanK3 assay; for Km: read-out: KM for PanK3, wild-type PanK3, substrate; for PanK3 inhibition by steroids: radiochemical assay, 100 µM compound; for PanK3 inhibition (in words): increasing concentrations of compound; for Reversal of / competition with acetyl-CoA inhibition of PanK3: in the presence of acetyl-CoA, data not shown
PanK3(S195V) = biological target: T2, PanK3(S195V) (Homo sapiens, UniProt Q9H999, S195V); assay: PanK3; assay type: biochemical; conditions: for Km: read-out: KM for PanK3(S195V), substrate; for Inhibition of PanK3(S195V): radioactive assay, 800 ng PanK3(S195V)
T2 sequence (Q9H999 1-370 S195V): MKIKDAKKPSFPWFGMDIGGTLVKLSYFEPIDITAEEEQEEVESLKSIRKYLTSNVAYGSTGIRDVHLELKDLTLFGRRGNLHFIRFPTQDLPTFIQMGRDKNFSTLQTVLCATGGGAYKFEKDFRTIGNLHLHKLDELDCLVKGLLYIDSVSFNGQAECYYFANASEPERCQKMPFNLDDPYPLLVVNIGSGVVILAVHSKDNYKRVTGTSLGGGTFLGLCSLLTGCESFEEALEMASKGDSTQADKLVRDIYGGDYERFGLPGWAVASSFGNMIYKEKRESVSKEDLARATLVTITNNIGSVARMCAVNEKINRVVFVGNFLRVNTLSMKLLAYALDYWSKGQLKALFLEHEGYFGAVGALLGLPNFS

HepG2/C3A cells = assay: CoA biosynthesis, [3H]pantothenate incorporation into CoA in HepG2/C3A cells; assay type: cell-based, human; conditions: 24 h labeling, relative to DMSO control
PanK1β = biological target: T3, PanK1β (Homo sapiens, UniProt Q8TE04); assay: Isoform selectivity, purified PanK1β; assay type: biochemical; conditions: compared to PanK3
T3 sequence (Q8TE04 1-373 isoform Q8TE04-2): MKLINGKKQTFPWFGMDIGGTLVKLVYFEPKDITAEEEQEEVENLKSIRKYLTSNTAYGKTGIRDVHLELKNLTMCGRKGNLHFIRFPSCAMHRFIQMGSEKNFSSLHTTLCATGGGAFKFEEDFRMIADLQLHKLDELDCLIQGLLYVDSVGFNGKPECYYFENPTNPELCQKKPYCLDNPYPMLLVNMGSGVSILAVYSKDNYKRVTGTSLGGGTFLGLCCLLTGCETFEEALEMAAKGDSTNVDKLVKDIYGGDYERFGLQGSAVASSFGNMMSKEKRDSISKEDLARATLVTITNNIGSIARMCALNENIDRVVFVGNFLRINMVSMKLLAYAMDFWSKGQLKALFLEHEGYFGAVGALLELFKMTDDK

PanK2 = biological target: T4, PanK2 (Homo sapiens, UniProt Q9BZ23); assay: Isoform selectivity, purified PanK2; assay type: biochemical; conditions: compared to PanK3
T4 sequence (Q9BZ23 141-570 limits assumed): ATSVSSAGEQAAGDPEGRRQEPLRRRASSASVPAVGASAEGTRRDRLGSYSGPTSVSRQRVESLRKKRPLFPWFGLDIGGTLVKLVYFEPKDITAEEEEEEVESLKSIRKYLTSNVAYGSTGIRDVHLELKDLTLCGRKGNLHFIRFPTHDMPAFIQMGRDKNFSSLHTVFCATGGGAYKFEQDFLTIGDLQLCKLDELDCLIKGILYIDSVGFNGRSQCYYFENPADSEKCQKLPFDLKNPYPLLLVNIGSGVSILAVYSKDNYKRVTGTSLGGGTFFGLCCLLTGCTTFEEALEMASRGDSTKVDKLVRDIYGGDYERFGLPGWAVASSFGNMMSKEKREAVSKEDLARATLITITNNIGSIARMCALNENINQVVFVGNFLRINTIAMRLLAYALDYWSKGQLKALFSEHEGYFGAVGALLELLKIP

S. aureus PanK (SaPanK) = S. aureus PanK (SaPanK) (Staphylococcus aureus, UniProt Q2FWC7); assay: SaPanK radiochemical assay; assay type: biochemical; conditions: radioactive assay, 10 ng SaPanK
Chain of S. aureus PanK (SaPanK) (Q2FWC7 whole entry): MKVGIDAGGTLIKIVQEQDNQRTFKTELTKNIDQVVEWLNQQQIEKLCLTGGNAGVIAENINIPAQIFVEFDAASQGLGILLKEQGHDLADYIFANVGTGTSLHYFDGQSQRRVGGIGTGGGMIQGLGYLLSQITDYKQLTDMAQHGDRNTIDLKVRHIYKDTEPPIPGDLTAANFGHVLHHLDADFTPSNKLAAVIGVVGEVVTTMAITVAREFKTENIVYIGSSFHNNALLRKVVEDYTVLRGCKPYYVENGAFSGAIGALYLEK

[3] = HTS platform, 10-point concentration series in triplicate, rounded to nearest 0.1 µM

T1 sequence (Q9H999 whole entry): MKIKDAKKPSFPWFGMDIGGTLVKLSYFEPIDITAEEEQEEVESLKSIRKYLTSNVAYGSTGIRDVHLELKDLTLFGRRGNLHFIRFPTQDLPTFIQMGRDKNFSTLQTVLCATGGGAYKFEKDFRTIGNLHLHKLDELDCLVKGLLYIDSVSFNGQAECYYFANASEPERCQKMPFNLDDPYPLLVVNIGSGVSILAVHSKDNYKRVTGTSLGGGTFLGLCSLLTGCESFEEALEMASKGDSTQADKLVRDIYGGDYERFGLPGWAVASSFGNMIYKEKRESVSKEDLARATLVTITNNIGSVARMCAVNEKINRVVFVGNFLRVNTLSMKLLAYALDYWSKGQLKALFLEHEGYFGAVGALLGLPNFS

N=C(N)SCCc1ccc(CCSC(=N)N)cc1 [1,4-PBIT dihydrobromide]
IC50 (PanK3 [1]; [3]): 0.4 µM

O=C1C=CC(=O)c2ccccc21 [1,4-naphtoquinone]
% Activation RA (PanK3 [2]): 0%
EC50 (µM), RA (PanK3 [2]): Inactive

CC1(C)[C@@H](O)CC[C@]2(C)[C@H]3C(=O)C=C4[C@H]5C[C@@](C)(C(=O)O)CC[C@]5(C)CC[C@@]4(C)[C@]3(C)CC[C@@H]12 [18α-glycyrrhetinic acid]
IC50 (PanK3 [1]): 3.6 µM

Nc1ncnc2c1ncn2[C@@H]1O[C@H](COP(=O)(O)OP(=O)(O)O)[C@@H](O)[C@H]1O [ADP]
Kinetic mechanism of PanK3 inhibition with respect to ATP (PanK3 [2]): competitive inhibitor

Nc1ncnc2c1ncn2[C@@H]1O[C@H](COP(=O)(O)OP(=O)(O)OP(=O)(O)O)[C@@H](O)[C@H]1O [ATP]
Km (PanK3(S195V)): 191 ± 27 µM
Km (PanK3 [2]): 311 ± 53 µM

O=C1C(Cl)=C(Cl)C(=O)C(Cl)=C1Cl [Chloranil]
IC50 (PanK3 [1]): 5.9 µM

C[C@]12CC[C@H](OS(=O)(=O)O)CC1=CC[C@@H]1[C@@H]2CC[C@]2(C)C(=O)CC[C@@H]12 [Dehydroisoandrosterone sulfate]
PanK3 inhibition by steroids (PanK3 [2]): inhibited the enzyme more potently than their non-sulfated versions

C[C@]12CC[C@H](O)CC1=CC[C@@H]1[C@@H]2CC[C@]2(C)C(=O)CC[C@@H]12 [Dehydroisoandrosterone]
PanK3 inhibition by steroids (PanK3 [2]): decreased the enzyme activity

CN[C@@H](C)[C@H](O)c1ccccc1 [Ephedrine hydrochloride]
IC50 (PanK3 [1]): 1.6 µM

CC(=O)O[C@H]1C[C@@]2(C)[C@@H](C[C@@H](O)[C@H]3[C@@]4(C)CC[C@@H](O)[C@@H](C)[C@@H]4CC[C@@]32C)/C1=C(\CCC=C(C)C)C(=O)O [Fusidic acid]
IC50 (PanK3 [1]): 0.1 µM

CN(CCOc1ccc(C[C@H](Nc2ccccc2C(=O)c2ccccc2)C(=O)O)cc1)c1ccccn1 [GW1929]
PanK3 inhibition (in words) (PanK3 [2]): either had no effect or very weak activity

O=C1Nc2ccc(I)cc2/C1=C/c1cc(Br)c(O)c(Br)c1 [GW5074]
IC50 (PanK3 [1]; [3]): 9.2 µM

O=C(Nc1ccccc1)c1cc([N+](=O)[O-])ccc1Cl [GW9662]
PanK3 inhibition (in words) (PanK3 [2]): either had no effect or very weak activity

Cc1cc(SCc2sc(-c3ccc(C(F)(F)F)cc3)nc2C)ccc1OCC(=O)O [GW501516]
IC50 (PanK3 [2]): ~100 µM

Cc1cnc(C(=O)NCCc2ccc(S(=O)(=O)NC(=O)NC3CCCCC3)cc2)cn1 [Glipizide]
IC50 (PanK3 [2]): 8.5 µM
IC50 (PanK3 [1]): 5.2 µM

COc1ccc(Cl)cc1C(=O)NCCc1ccc(S(=O)(=O)NC(=O)NC2CCCCC2)cc1 [Glyburide]
Inhibition of PanK3(S195V) (PanK3(S195V)): refractory to inhibition
IC50 (PanK3 [2]): 8.5 µM
Kinetic mechanism of PanK3 inhibition with respect to ATP (PanK3 [2]): uncompetitive
Effect on CoA biosynthesis (pantothenate incorporation into CoA) (HepG2/C3A cells): inhibited cellular CoA biosynthesis to a lesser extent than MCC-555
Effect on PanK1β activity (PanK1β): activated rather than inhibited
Effect on PanK2 activity (PanK2): less sensitive to glyburide than PanK3
IC50 (PanK3 [1]): 6.8 µM
Inhibition of SaPanK (S. aureus PanK (SaPanK)): refractory; also recorded: not inhibited

Oc1c(Cl)cc(Cl)c(Cl)c1Cc1c(O)c(Cl)cc(Cl)c1Cl [Hexachlorophene]
IC50 (PanK3 [1]): 8.8 µM

O=C1NC(=O)C(Cc2ccc3cc(OCc4ccccc4F)ccc3c2)S1 (stereo not drawn) [MCC-555]
Inhibition of PanK3(S195V) (PanK3(S195V)): refractory to inhibition
Kinetic mechanism of PanK3 inhibition with respect to ATP (PanK3 [2]): uncompetitive
Effect on CoA biosynthesis (pantothenate incorporation into CoA) (HepG2/C3A cells): inhibited pantothenate incorporation into CoA
Effect on PanK1β activity (PanK1β): inhibited
Effect on PanK2 activity (PanK2): inhibited
Inhibition of SaPanK (S. aureus PanK (SaPanK)): refractory; also recorded: not inhibited

CCCCCCCC/C=C\CCCCCCCC(=O)O[C@H](CC(=O)[O-])C[N+](C)(C)C [Oleoyl-carnitine]
% Activation RA (PanK3 [2]): 140%
Reversal of / competition with acetyl-CoA inhibition of PanK3 (PanK3 [2]): Competition between acetyl-CoA and oleoyl-carnitine was also observed
Effect on CoA biosynthesis (pantothenate incorporation into CoA) (HepG2/C3A cells): activators of CoA biosynthesis

CCCCCCCC/C=C\CCCCCCCC(=O)NCCO [Oleoylethanolamide]
EC50 (PanK3 [2]): 0.5 µM
% Activation RA (PanK3 [2]): 120%
EC50 (PanK3 [1]): 7.9 µM

CCCCCCCCCCCCCCCC(=O)OC(CC(=O)[O-])C[N+](C)(C)C (stereo not drawn) [Palmitoyl-carnitine]
EC50 (PanK3 [2]): 1.6 µM
% Activation RA (PanK3 [2]): 120%

CCc1ccc(CCOc2ccc(CC3SC(=O)NC3=O)cc2)nc1 (stereo not drawn) [Pioglitazone hydrochloride]
IC50 (PanK3 [1]): 1 µM

CC(=O)[C@H]1CC[C@H]2[C@@H]3CC=C4C[C@@H](O)CC[C@]4(C)[C@H]3CC[C@]12C [Pregnenolone]
PanK3 inhibition by steroids (PanK3 [2]): weak PanK3 inhibitors

O=C(c1cc(O)c(O)c([N+](=O)[O-])c1)c1ccccc1F [Ro 41-0960]
IC50 (PanK3 [1]; [3]): 3.9 µM

CN(CCOc1ccc(CC2SC(=O)NC2=O)cc1)c1ccccn1 (stereo not drawn) [Rosiglitazone]
Effect on CoA biosynthesis (pantothenate incorporation into CoA) (HepG2/C3A cells): inhibited pantothenate incorporation into CoA

CC/C(=C(\c1ccccc1)c1ccc(OCCN(C)C)cc1)c1ccccc1 [Tamoxifen]
EC50 (PanK3 [2]): 4 µM
% Activation RA (PanK3 [2]): 140%
Reversal of / competition with acetyl-CoA inhibition of PanK3 (PanK3 [2]): reversed the inhibition of PanK3 by acetyl-CoA
Effect on CoA biosynthesis (pantothenate incorporation into CoA) (HepG2/C3A cells): most potent activator of CoA biosynthesis in cells
Effect on PanK1β activity (PanK1β): inhibited
Effect on PanK2 activity (PanK2): not affected
EC50 (PanK3 [1]): 3.4 µM

CCCCNC(=O)NS(=O)(=O)c1ccc(C)cc1 [Tolbutamide]
PanK3 inhibition (in words) (PanK3 [2]): ineffective

Cc1c(Cl)cccc1Nc1ccccc1C(=O)O [Tolfenamic acid]
IC50 (PanK3 [1]): 9.2 µM

N#C/C(=C\c1ccc(O)c(O)c1)C(=O)N1CCc2ccccc21 [Tyrphostin AG 528]
IC50 (PanK3 [1]; [3]): 3 µM

C#C[C@]1(O)CC[C@H]2[C@@H]3CCC4=Cc5nc6nc7ccccc7n6cc5C[C@]4(C)[C@H]3CC[C@@]21C [WIN 62577]
IC50 (PanK3 [1]; [3]): 0.7 µM

CC(=O)SCCNC(=O)CCNC(=O)[C@H](O)C(C)(C)COP(=O)(O)OP(=O)(O)OC[C@H]1O[C@@H](n2cnc3c(N)ncnc32)[C@H](O)[C@@H]1OP(=O)(O)O [acetyl-CoA]
Inhibition of PanK3(S195V) (PanK3(S195V)): refractory to inhibition

CC(C)CCC[C@@H](C)[C@H]1CC[C@H]2[C@@H]3CC=C4C[C@@H](O)CC[C@]4(C)[C@H]3CC[C@]12C [cholesterol]
PanK3 inhibition by steroids (PanK3 [2]): weak PanK3 inhibitors

C[C@]12CC[C@@H]3c4ccc(OS(=O)(=O)O)cc4CC[C@H]3[C@@H]1CC[C@@H]2O [estradiol sulfate]
PanK3 inhibition by steroids (PanK3 [2]): no effect

C[C@]12CC[C@@H]3c4ccc(OS(=O)(=O)O)cc4CC[C@H]3[C@@H]1CCC2=O [estrone sulfate]
PanK3 inhibition by steroids (PanK3 [2]): inhibited the enzyme more potently than their non-sulfated versions

NS(=O)(=O)c1cc(C(=O)O)c(NCc2ccco2)cc1Cl [furosemide]
Activator hit in primary HTS (PanK3 [1]; screened at 12 µM, cut-off >25% activation): did not make the cutoff for an activator of PanK3

CC(C)[C@H]1CC[C@H](C(=O)N[C@H](Cc2ccccc2)C(=O)O)CC1 [nateglinide]
IC50 (PanK3 [2]): > 100 µM

CC(C)(CO)[C@@H](O)C(=O)NCCC(=O)NCCS [pantetheine]
Km (PanK3(S195V)): 59 ± 3 µM
Km (PanK3 [2]): 23 ± 2 µM

CCOc1cc(CC(=O)N[C@@H](CC(C)C)c2ccccc2N2CCCCC2)ccc1C(=O)O [repaglinade]
IC50 (PanK3 [2]): > 100 µM

Phenylmercuric acid
% Activation RA (PanK3 [2]): 0%
EC50 (µM), RA (PanK3 [2]): Inactive

Psi-Rhodomyrtoxin
IC50 (PanK3 [1]; [3]): 1.6 µM

Tyrphostin AG 808
IC50 (PanK3 [1]; [3]): 9 µM
